Results taken from patent publication US10172358B2, “Thiopicolinamide compounds with fungicidal activity” (Dow AgroSciences LLC, priority 2016, dated 2019).
Where two headings read alike, the source gives them in different places.

How the values were obtained:
Zymoseptoria tritici = experiment: Fungicidal activity: leaf blotch of wheat (SEPTTR), disease control on wheat seedlings; type: in vivo, Zymoseptoria tritici on wheat plants (variety Yuma); conditions: high volume application, 100 ppm
How it was run: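 Wheat seedlings (cv. Yuma, first-leaf stage) sprayed to run-off with acetone/water solutions containing Triton X-100 (or EC formulations by track spray), inoculated with Z. tritici spores before or after treatment. Kept in a dew chamber, then greenhouse at 20 °C; percent control derived from disease severity relative to untreated plants.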

Puccinia triticina = experiment: Fungicidal activity: wheat brown rust (PUCCRT), disease control on wheat seedlings; type: in vivo, Puccinia triticina on wheat plants (variety Yuma); conditions: high volume application, 100 ppm
How it was run: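 Compounds in acetone diluted with nine volumes of water containing 110 ppm Triton X-100, sprayed to run-off on first-leaf Yuma wheat seedlings, inoculated with P. triticina spores before or after treatment. Plants held overnight in dark dew room at 22° C., 100% RH, then greenhouse at 24° C.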

[1] = 24 h, 1 day protectant, read-out: SEPTTR 1DP disease control, HV activity at 100 ppm
[2] = 72 h, 3 day curative, read-out: SEPTTR 3DC disease control, HV activity at 100 ppm
[3] = 24 h, 1 day protectant, read-out: PUCCRT 1DP disease control, HV activity at 100 ppm
[4] = 72 h, 3 day curative, read-out: PUCCRT 3DC disease control, HV activity at 100 ppm

Row | melting point | Structure (SMILES) | pest or weed control at 100 ppm (Zymoseptoria tritici; [1]) | pest or weed control at 100 ppm (Zymoseptoria tritici; [2]) | pest or weed control at 100 ppm (Puccinia triticina; [3]) | pest or weed control at 100 ppm (Puccinia triticina; [4])
1 | 152 to 159 °C | COc1ccnc(C(=S)N[C@@H](C)C(=O)O[C@@H](C)[C@@H](c2ccccc2)c2ccc(F)cc2C)c1O [Compound 26] | > 80% | > 80% | > 80% | ≤ 80%
2 | 46 to 63 °C | COc1ccnc(C(=S)N[C@@H](C)C(=O)O[C@@H](C(C)C)[C@@H](C)Oc2ccccc2)c1O [Compound 27] |  | ≤ 80% | ≤ 80% | 
3 | 50 to 61 °C | COc1ccnc(C(=S)N[C@@H](C)C(=O)O[C@@H](C)C(c2ccc(F)cc2F)c2ccc(F)cc2F)c1O [Compound 32] | ≤ 80% | > 80% | ≤ 80% | ≤ 80%
4 | 45 to 57 °C | COc1ccnc(C(=S)N[C@@H](C)C(=O)O[C@@H](C)[C@H](Oc2ccccc2)c2ccc(F)cc2C)c1O [Compound 35] | > 80% | > 80% | > 80% | ≤ 80%
5 | 49 to 57 °C | COc1ccnc(C(=S)N[C@@H](C)C(=O)O[C@@H](C)[C@H](Oc2ccc(Cl)cc2)C2CCCC2)c1O [Compound 38] | > 80% | ≤ 80% | > 80% | > 80%

The remaining lines, values behind:

Row | Structure (SMILES) | melting point | pest or weed control at 100 ppm (Zymoseptoria tritici; [1]) | pest or weed control at 100 ppm (Zymoseptoria tritici; [2]) | pest or weed control at 100 ppm (Puccinia triticina; [3]) | pest or weed control at 100 ppm (Puccinia triticina; [4])
6 | COc1cc(C)ccc1C(c1ccc(C)cc1OC)[C@H](C)OC(=O)[C@H](C)NC(=S)c1nccc(OC)c1O [Compound 29] | 60 to 72 °C | > 80% | > 80% | > 80% | > 80%
7 | COc1ccnc(C(=S)N[C@@H](C)C(=O)O[C@@H](C)[C@H](Oc2ccccc2)c2ccc(F)cc2Cl)c1O [Compound 30] | 50 to 60 °C | > 80% | > 80% | > 80% | ≤ 80%
8 | COc1ccnc(C(=S)N[C@@H](C)C(=O)O[C@@H](C)[C@@H](c2ccc(F)cc2)c2ccc(F)cc2C)c1O [Compound 31] | 57 to 68 °C | > 80% | > 80% | > 80% | ≤ 80%
9 | COc1ccnc(C(=S)N[C@@H](C)C(=O)O[C@@H](C)[C@H](Oc2cccc(F)c2)C(C)C)c1O [Compound 33] | 132 to 141 °C | > 80% | ≤ 80% | > 80% | > 80%
10 | COc1ccnc(C(=S)N[C@@H](C)C(=O)O[C@H](C(C)C)[C@H](C)Oc2ccc(F)cc2)c1O [Compound 36] | 141 to 148 °C | > 80% | ≤ 80% | > 80% | > 80%
11 | CCC[C@@H](Oc1ccc(C)cc1)[C@H](C)OC(=O)[C@H](C)NC(=S)c1nccc(OC)c1O [Compound 37] | 125 to 133 °C | ≤ 80% |  | > 80% | > 80%
